According to PubChem BioAssay AID1259407 (Chemical Carcinogenesis Research Information System (CCRIS), 2018):
Activity calls are given as the source filed them. No rule for the calls is given here.

Tested on: CCRIS mutagenicity, Ames/micronucleus/aberration tests
Experiment: CCRIS mutagenicity studies
[1] = Test System: AMES SALMONELLA TYPHIMURIUM, Strain/Indicator: TA102, Metabolic Activation: NONE, Method: PREINCUBATION
[2] = Test System: AMES SALMONELLA TYPHIMURIUM, Strain/Indicator: TA98, Metabolic Activation: NONE, Method: PREINCUBATION
[3] = Test System: AMES SALMONELLA TYPHIMURIUM, Strain/Indicator: TA100, Metabolic Activation: NONE, Method: PREINCUBATION
[4] = Test System: AMES SALMONELLA TYPHIMURIUM, Strain/Indicator: TA104, Metabolic Activation: NONE, Method: PREINCUBATION

[Cl][Cu][Cl]
mutagenic call (Test System: E. COLI, Strain/Indicator: WP2 UVRA, Metabolic Activation: NONE, Method: SPOT TEST): active; positive
mutagenic call (Test System: E. COLI, Strain/Indicator: WP2 UVRA, Metabolic Activation: NONE, Method: STANDARD PLATE): active; positive

c1ccc([Se][Se]c2ccccc2)cc1
mutagenic call (Test System: AMES SALMONELLA TYPHIMURIUM, Strain/Indicator: TA97A, Metabolic Activation: NONE, Method: PREINCUBATION): active; positive
mutagenic call [1]: inactive; negative

N#CC1=C(C#N)C(=O)C(Cl)=C(Cl)C1=O
mutagenic call [2]: inactive; negative
mutagenic call (Test System: AMES SALMONELLA TYPHIMURIUM, Strain/Indicator: TA98, Metabolic Activation: RAT, LIVER, S-9, PHENOBARBITAL AND 5,6-BENZOFLAVONE, Method: PREINCUBATION): inactive; negative
mutagenic call [3]: inactive; negative
mutagenic call [1]: inactive; negative
mutagenic call (Test System: AMES SALMONELLA TYPHIMURIUM, Strain/Indicator: TA102, Metabolic Activation: RAT, LIVER, S-9, PHENOBARBITAL AND 5,6-BENZOFLAVONE, Method: PREINCUBATION): inactive; negative
mutagenic call [4]: active; positive
mutagenic call (Test System: AMES SALMONELLA TYPHIMURIUM, Strain/Indicator: TA104, Metabolic Activation: RAT, LIVER, S-9, PHENOBARBITAL AND 5,6-BENZOFLAVONE, Method: PREINCUBATION): active; positive
mutagenic call (Test System: AMES SALMONELLA TYPHIMURIUM, Strain/Indicator: TA2637, Metabolic Activation: NONE, Method: PREINCUBATION): inactive; negative
mutagenic call (Test System: AMES SALMONELLA TYPHIMURIUM, Strain/Indicator: TA2637, Metabolic Activation: RAT, LIVER, S-9, PHENOBARBITAL AND 5,6-BENZOFLAVONE, Method: PREINCUBATION): active; positive

CCOCCCl
mutagenic call [2]: inactive; negative
mutagenic call (Test System: AMES SALMONELLA TYPHIMURIUM, Strain/Indicator: TA98, Metabolic Activation: RAT, LIVER, S-9, PHENOBARBITAL AND BETA-NAPHTHOFLAVONE, Method: PREINCUBATION): inactive; negative
mutagenic call [3]: inactive; negative
mutagenic call (Test System: AMES SALMONELLA TYPHIMURIUM, Strain/Indicator: TA100, Metabolic Activation: RAT, LIVER, S-9, PHENOBARBITAL AND BETA-NAPHTHOFLAVONE, Method: PREINCUBATION): inactive; negative
mutagenic call [1]: inactive; negative
mutagenic call (Test System: AMES SALMONELLA TYPHIMURIUM, Strain/Indicator: TA102, Metabolic Activation: RAT, LIVER, S-9, PHENOBARBITAL AND BETA-NAPHTHOFLAVONE, Method: PREINCUBATION): inactive; negative
mutagenic call [4]: active; positive
mutagenic call (Test System: AMES SALMONELLA TYPHIMURIUM, Strain/Indicator: TA104, Metabolic Activation: RAT, LIVER, S-9, PHENOBARBITAL AND BETA-NAPHTHOFLAVONE, Method: PREINCUBATION): inactive; negative
mutagenic call (Test System: AMES SALMONELLA TYPHIMURIUM, Strain/Indicator: TA1535, Metabolic Activation: NONE, Method: PREINCUBATION): inactive; negative
mutagenic call (Test System: AMES SALMONELLA TYPHIMURIUM, Strain/Indicator: TA1535, Metabolic Activation: RAT, LIVER, S-9, PHENOBARBITAL AND BETA-NAPHTHOFLAVONE, Method: PREINCUBATION): inactive; negative
mutagenic call (Test System: AMES SALMONELLA TYPHIMURIUM, Strain/Indicator: TA1537, Metabolic Activation: NONE, Method: PREINCUBATION): inactive; negative
mutagenic call (Test System: AMES SALMONELLA TYPHIMURIUM, Strain/Indicator: TA1537, Metabolic Activation: RAT, LIVER, S-9, PHENOBARBITAL AND BETA-NAPHTHOFLAVONE, Method: PREINCUBATION): inactive; negative
mutagenic call (Test System: E. COLI, Strain/Indicator: WP2UVRA/PKM101, Metabolic Activation: NONE, Method: PREINCUBATION): inactive; negative
mutagenic call (Test System: E. COLI, Strain/Indicator: WP2UVRA/PKM101, Metabolic Activation: RAT, LIVER, S-9, PHENOBARBITAL AND BETA-NAPHTHOFLAVONE, Method: PREINCUBATION): inactive; negative
mutagenic call (Test System: E. COLI, Strain/Indicator: WP2UVRA, Metabolic Activation: NONE, Method: PREINCUBATION): inactive; negative
mutagenic call (Test System: E. COLI, Strain/Indicator: WP2UVRA, Metabolic Activation: RAT, LIVER, S-9, PHENOBARBITAL AND BETA-NAPHTHOFLAVONE, Method: PREINCUBATION): inactive; negative

COc1cccc2c1C1(C)OOC1(C)O2 (stereo not given)
mutagenic call [3]: active; positive
